# Results taken from patent publication EP0157753B1, “New somatostatin compounds, process for their synthesis, preparation for veterinary use containing said compound and process for the treatment of animals” (TECHLAND, Société Anonyme, priority 1984, dated 1987).
# Assay: Treatment of young bulls with GPP: live weight gain and food intake over 7 months
# Type: in vivo
# Settings: batch 5 (SRIF, MTP treated) versus batch 3 (SRIF, MDP treated); low, without any statistical significance
# Description: They were injected four times with 100 µg of GPP or a mixture of equivalent amounts of muramyl di-or triptide and SRIF. Samples were solubilized in physiological medium supplemented with 40 % WN polyethyleneglycol 6000. Intramuscular injections in the neck of animals were performed with 3 ml of the solution at days 0, 10, 30 and 60 of the 7 months period. During the seventh months treatment period the animals received a concentrate ad libitum. Each month, the animals were weighed and blood samples were taken for further analyses. The results concerning the parameters studied in this zootechnical experiment were summarized in the following.
# Variance analysis of the body live weight gain has been performed on 27 animals alive on September 27, 1984 (16 controls and 11 treated animals). At that time, the difference of life weight gain between the 16 control animals and the 11 treated animals was 31.3 kg per animal, i. e. 11 % over controls.
substance,measurement,value
"SRIF, MTP: Coupling of a muramyl tripeptide analog (N-acetyl muramyl-L-Ala-D-isoglutamyl-L-lysine OMe) with somatostatine (SRIF)",deviation between the life gain of treated animals of batch 5 and batch 3,5.7 kg
